This note sets out measurements from patent publication US10487068B2, “Pyridazine derivatives as RORc modulators” (Genentech, Inc., priority 2015, dated 2019).

For the test, the target named is T1, RORc ligand binding domain (Homo sapiens, UniProt P51449).
T1 sequence (P51449 269-508 limits assumed): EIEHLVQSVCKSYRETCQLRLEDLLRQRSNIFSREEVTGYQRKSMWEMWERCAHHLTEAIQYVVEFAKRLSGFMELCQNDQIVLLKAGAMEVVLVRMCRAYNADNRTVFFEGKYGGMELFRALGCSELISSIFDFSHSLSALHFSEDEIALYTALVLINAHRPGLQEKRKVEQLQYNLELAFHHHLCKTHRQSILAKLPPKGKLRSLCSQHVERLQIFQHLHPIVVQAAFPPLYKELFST
Kind of test: In Vitro RORc Ligand Binding Assay. Conditions: RORc IC50, radioligand 25-[3H]hydroxycholesterol 6 nM; 0.6 ug/mL RORc receptor; 3 h at 25° C.

Usually IC50 stands for the concentration needed to halve the response being measured. The molecule `COc1ccnc([C@@]23CC[C@@H](c4cc(-c5c(F)cccc5F)nnc42)C3(C)C)n1` [Example 21, (5R,8R)-3-(2,6-difluorophenyl)-8-(4-methoxypyrimidin-2-yl)-9,9-dimethyl-5,6,7,8-tetrahydro-5,8-methanocinnoline] registered a 50% inhibitory concentration (IC50) of 0.0238 µM.

`CC1(C)[C@H]2CC[C@]1(c1cncc(-c3nc(C4(O)CC4)n[nH]3)n1)c1nnc(-c3c(F)cccc3F)cc12` [Example 285, 1-(5-(6-((5R,8S)-3-(2,6-difluorophenyl)-9,9-dimethyl-5,6,7,8-tetrahydro-5,8-methanocinnolin-8-yl)pyrazin-2-yl)-1H-1,2,4-triazol-3-yl)cyclopropanol] returned an IC50 of 0.0041 µM.

`CC1(C)[C@H]2CC[C@]1(c1ccnc(-c3cccnc3O)n1)c1nnc(-c3c(F)cccc3F)cc12` [Example 385]: the IC50 came out at 0.0197 µM.

In turn, `CC1(C)[C@H]2CC[C@]1(c1cccc(-c3nc(C4(O)CC4)n[nH]3)n1)c1nnc(-c3c(F)cccc3F)cc12` [Example 317, 1-(5-(6-((5R,8S)-3-(2,6-difluorophenyl)-9,9-dimethyl-5,6,7,8-tetrahydro-5,8-methanocinnolin-8-yl)pyridin-2-yl)-1H-1,2,4-triazol-3-yl)cyclopropanol] registered an IC50 of 0.0092 µM.

As to `CC1(C)[C@H]2CC[C@]1(c1cc(C(=O)NCCO)ccn1)c1nnc(-c3c(F)cccc3F)cc12` [Example 64], the half-maximal inhibitory concentration (IC50) amounted to 0.0954 µM.

The molecule `CC(C)(O)c1nnc(-c2cncc([C@@]34CC[C@@H](c5cc(-c6c(F)cccc6F)nnc53)C4(C)C)n2)o1` [Example 260, 2-(5-(6-((5R,8S)-3-(2,6-difluorophenyl)-9,9-dimethyl-5,6,7,8-tetrahydro-5,8-methanocinnolin-8-yl)pyrazin-2-yl)-1,3,4-oxadiazol-2-yl)propan-2-ol] had a concentration for half-maximal inhibition (IC50) of 0.0124 µM.

On to `CC1(C)[C@H]2CC[C@]1(c1cncc(NC(=O)NCCO)n1)c1nnc(-c3c(F)cccc3F)cc12` [Example 204, 1-(6-((5R,8S)-3-(2,6-difluorophenyl)-9,9-dimethyl-5,6,7,8-tetrahydro-5,8-methanocinnolin-8-yl)pyrazin-2-yl)-3-(2-hydroxyethyl)urea], for which the IC50 worked out at 0.0746 µM.

Regarding `CC1(C)[C@H]2CC[C@]1(c1ccnc(-n3cncn3)n1)c1nnc(-c3c(F)cccc3F)cc12` [Example 182], the IC50 was 0.0042 µM.

In turn, `CC1(C)[C@H]2CC[C@]1(c1ccnc(N3CC4(CCO4)C3)n1)c1nnc(-c3c(F)cccc3F)cc12` [Example 336] displayed a 50% inhibitory concentration (IC50) of 0.013 µM.

As for `CC1(C)[C@H]2CC[C@]1(c1ccnc(-c3ccc(NS(C)(=O)=O)nc3)n1)c1nnc(-c3c(F)cccc3F)cc12` [Example 414, N-(5-(4-((5R,8S)-3-(2,6-difluorophenyl)-9,9-dimthyl-5,6,7,8-tetrahydro-5,8-methanocinnolin-8-yl)pyrimidin-2-yl)pyridin-2-yl)methanesulfonamide], the half-inhibitory concentration (IC50) is 0.0098 µM.

`CC1(C)[C@H]2CC[C@]1(c1nc(C(N)=O)ncc1F)c1nnc(-c3c(F)cccc3F)cc12` [Example 250] showed an IC50 of 0.0228 µM.

As for `CC1(C)[C@H]2CC[C@]1(c1cccc(C#N)n1)c1nnc(-c3c(F)cccc3Cl)cc12` [Example 173, 6-((5R,8S)-3-(2-chloro-6-fluorophenyl)-9,9-dimethyl-5,6,7,8-tetrahydro-5,8-methanocinnolin-8-yl)picolinonitrile], the half-inhibitory concentration (IC50) is 0.0045 µM.

In turn, `CC1(C)[C@H]2CC[C@]1(c1ccnc(-n3cnc(C(F)(F)F)n3)n1)c1nnc(-c3c(F)cccc3F)cc12` [Example 271] gave a half-maximal inhibitory concentration (IC50) of 0.0044 µM.

As for `CC1(C)[C@H]2CC[C@]1(c1nc(-n3ccc(CO)n3)ncc1F)c1nnc(-c3c(F)cccc3F)cc12` [Example 287], the half-maximal inhibitory concentration (IC50) was found to be 0.0121 µM.

As to `CC(C)(O)c1coc(-c2cncc([C@]34CC[C@H](c5cc(-c6c(F)cccc6F)nnc53)C4(C)C)n2)n1` [Example 387, 2-(2-(6-((5S,8R)-3-(2,6-difluorophenyl)-9,9-dimethyl-5,6,7,8-tetrahydro-5,8-methanocinnolin-8-yl)pyrazin-2-yl)oxazol-4-yl)propan-2-ol], the IC50 was 0.008 µM.
